Results on two compounds are retold here after publication PMC3632557, “Histatin 5 Resistance of Candida glabrata Can Be Reversed by Insertion of Candida albicans Polyamine Transporter-Encoding Genes DUR3 and DUR31” (PLoS ONE, 2013).

Assay [1] concerns C. albicans CAI4. In words: Spermidine uptake rate. The format is cell-based, Candida albicans. To be noted: method as in earlier work. From the text:
(§1) Next, we investigated the role of altered Hst 5 uptake mechanisms between C. albicans and C. glabrata as a probable reason for their differential susceptibilities to Hst 5. C. albicans contains six DUR transporter family members that are responsible for polyamine (spermidine, spermine, and putrescine) uptake. […] C. glabrata CAGL0K03157g product has 54% identity and 71% similarity with C. albicans DUR3 (orf19.781); and C. glabrata CAGL0108613g product has 51% identity and 69% similarity with C. albicans DUR31 (orf19.6656). However, C. glabrata CAGL0K03157g (CaDUR3 homologue) gene product has even higher homology with S. cerevisiae DUR3, having 65% identity and 76% similarity. The in silico predicted function of these C. glabrata proteins is transmembrane transport; however their specific functions remain uncharacterized. […] There were no significant differences in rates of spermidine uptake among the three strains of C. glabrata (0.163±0.015 nanomoles/10^6 cells/min) compared to C. albicans (0.160±0.014 nanomoles/10^6 cells/min); thus showing polyamine transporter activity is equivalent between C. albicans and C. glabrata strains in respect to spermidine.

In assay [2] the test system is C. glabrata Cg10, Cg30, Cg32. In words: Spermidine uptake rate. The format is cell-based, Candida glabrata. As to conditions: three strains of C. glabrata; method as in earlier work.
Description: as §1

Assay [3] has as its system C. albicans CAI4. The assay can be described thus: Candidacidal assay (microdilution plate). The assay is classed as cell-based, Candida albicans. As to conditions: 31 µM Hst 5; 1×10^6 cells, 10 mM NaPB pH 7.2, 30°C, 30 min, colony counts after 48 h; n = 4. The method, then: (§2) Candidacidal assays were performed using microdilution plate assays. Briefly, single colonies of C. albicans CAI4, C. glabrata Cg10, Cg30, Cg32, and BG14 strains were inoculated in YPD media; Cg BG14-CaDUR3, Cg BG14-CaDUR31, and Cg BG14-Empty vector were inoculated in YNB media without uridine and grown overnight (A600 = 1.6–1.8). Cells were washed twice with 10 mM sodium phosphate buffer (NaPB) (pH 7.2) and cells (1×10^6) were incubated at 30°C for 30 min with different concentrations of Hst 5. Aliquots of 500 cells were spread onto YPD (WT strains) or YNB - uridine (C. glabrata expressing C. albicans DUR genes) agar plates and incubated for 48 h to visualize surviving colonies. Blocking experiments were performed using cells pre-incubated with β-1,3-glucan monoclonal antibody (Biosupplies) at room temperature for 30 min. All killing assays were performed in triplicate and repeated at least thrice. Percent cell killing was calculated as 1−(number of colonies from suspensions with Hst 5/numbers of colonies from control suspensions)×100.
For orientation: Broth dilution looks for growth in wells or tubes with falling amounts of substance.

The test system of assay [4] is C. glabrata BG14 cells not expressing C. albicans DUR genes. The assay can be described thus: Candidacidal assay (microdilution plate). The format is cell-based, Candida glabrata. As to conditions: Hst 5 60 µM; 10 mM NaPB pH 7.2, 30°C, 30 min, colony counts; n = 3. The method, then: as §2
Assay [5] has as its system C. glabrata Cg 90030 (Cg30). The assay can be described thus: Candidacidal assay (microdilution plate). As to conditions: Hst 5 up to 31 µM; 10 mM NaPB pH 7.2, 30°C, 30 min, colony counts; n = 4. The assay is classed as cell-based, Candida glabrata. The method, then:
as §2

In assay [6] the test system is C. glabrata Cg 90032 (Cg32). In words: Candidacidal assay (microdilution plate). The format is cell-based, Candida glabrata. To be noted: Hst 5 up to 31 µM; 10 mM NaPB pH 7.2, 30°C, 30 min, colony counts; n = 4. The method, then:
as §2

Assay [7] deals with C. glabrata Cg 931010 (Cg10). The assay can be described thus: Candidacidal assay (microdilution plate). The assay is classed as cell-based, Candida glabrata. As to conditions: 31 µM Hst 5; 1×10^6 cells, 10 mM NaPB pH 7.2, 30°C, 30 min, colony counts; n = 4. The method, then:
as §2

Assay [8] deals with Cg BG14-CaDUR31. The assay can be described thus: Candidacidal assay (microdilution plate). To be noted: Hst 5 60 µM; 10 mM NaPB pH 7.2, 30°C, 30 min, colony counts; n = 3. The format is cell-based, Candida glabrata. On the procedure:
as §2

For assay [9], the system named is Cg BG14-CaDUR3. In words: Candidacidal assay (microdilution plate). The format is cell-based, Candida glabrata. As to conditions: Hst 5 60 µM; 10 mM NaPB pH 7.2, 30°C, 30 min, colony counts; n = 3. On the procedure: as §2
Assay [10] deals with C. albicans CAI4 biofilm. The assay can be described thus: Confocal microscopy of F-Hst 5 in 24 h biofilms. The format is cell-based, Candida albicans. To be noted: FITC-labeled Hst 5 31.5 µM, 24 h biofilm. On the procedure: (§3) CAI4, Cg10, Cg30, Cg32, BG14, Cg BG14-CaDUR3, Cg BG14-CaDUR31, and Cg BG14-Empty vector were treated with fluorescein isothiocyanate FITC-labeled Hst 5 (F-Hst 5, synthesized by Genemed Synthesis, Inc.) to observe relative binding and uptake of salivary Hst 5 as described previously. […] Cells grown overnight (A600 = 0.8–1.0) were diluted to obtain 10^6 cells/ml in NaPB. Chambered cover glass slides (Lab-TekII) were coated with concanavalin A (100 µg/ml) for 30 min and washed twice with water. Cells (1×10^6) were fixed on concanavalin A-coated slides for 30 min at room temperature. The plates were then washed twice with 10 mM NaPB followed by addition of 31 µM FITC-Hst 5. Images were captured using a Zeiss LSM 510 Meta Confocal Microscope and Plan Apochromat 63/1.4 (oil) objective. The average fluorescence intensity was calculated using ImageJ software. Confocal images of cells were compared to determine the relative binding and uptake of Hst 5. Hst 5 binding to Candida biofilms was analyzed using confocal microscopy on biofilms of CAI4 and Cg30 strains. Biofilms were formed by addition of 500 µl cells (cultured overnight in YPD at 28°C, then washed and diluted to OD600 = 1.0 in PBS) to each well of culture dishes (MatTek, MA) and incubated at 37°C for 3 h. Non-adherent cells were removed by gentle washing and 500 µl media was added to each well. The dishes were then incubated at 37°C for 24 h to allow biofilm formation. F-Hst 5 (31.5 µM) was added to each well. Biofilms were measured using a series of horizontal (x–y) optical sections with a thickness of 0.38 µm taken throughout the full length of the biofilm. Z-stack images and thickness measurements of biofilms were obtained using AxioVision 4.4 software (Carl Zeiss LSM Micro Imaging). […] The total number of F-Hst 5 labeled cells was quantified in CAI4 and Cg30 biofilms manually from three independent stacks originating at the Bottom (2–3 µm), Middle (6–8 µm) or Top (12–16 µm) regions of the biofilm. Values were plotted using Graphpad Prism 5 software.

Assay [11] deals with C. glabrata Cg30 biofilm. The assay can be described thus: Confocal microscopy of F-Hst 5 in 24 h biofilms. The assay is classed as cell-based, Candida glabrata. To be noted: FITC-labeled Hst 5 31.5 µM, 24 h biofilm. On the procedure:
as §3, with “Confocal images of cells were compared to determine the relative binding and uptake of Hst 5.” left out, “Biofilms were formed by addition of 500 µl cells (cultured overnight in YPD at 28°C, then washed and diluted to OD600 = 1.0 in PBS) to each well of culture dishes (MatTek, MA) and incubated at 37°C for 3 h. Non-adherent cells were removed by gentle washing and 500 µl media was added to each well. The dishes were then incubated at 37°C for 24 h to allow biofilm formation. F-Hst 5 (31.5 µM) was added to each well.” left out, “biofilm.” for “biofilm. Z-stack images and thickness measurements of biofilms were obtained using AxioVision 4.4 software (Carl Zeiss LSM Micro Imaging).”, “Values were plotted using Graphpad Prism 5 software.” left out

For assay [12], the system named is C. glabrata strains (ATCC 90030, 2001 and 64677). As to conditions: strains completely insensitive even at high concentrations; ref [10]; cited from earlier work. From the text:
Histatins are basic histidine-rich proteins secreted in human parotid and submandibular-sublingual saliva in humans and higher primates. Histatin 5 (Hst 5) is a proteolytic cleavage product of the larger Histatin 3 family member, [6]. […] However, ma ...

Some results are limits rather than exact numbers.

With `NCCCCNCCCN` [spermidine], the figures for the “rate of spermidine uptake” value in assay [1] and in [2] were 0.160±0.014 nanomoles/10^6 cells/min and 0.163±0.015 nanomoles/10^6 cells/min, respectively.

As usually defined, the IC50 is the concentration at which inhibition is half-maximal. As to Histatin 5 [Hst 5], the “cell death (killing)” value in assay [3] is reported as 65%. Also, the killing in assay [4] is reported as 25%; in [7] it was 22%; in assay [8], 55%; in assay [9] it was 43%. Moreover, the maximal killing stood at 8% in assay [5] and 10% in assay [6]. In addition, the “Hst 5 containing cells, total biofilm” value in assay [10] is listed as 28%; in [11] it was 17%. The “percentage of Hst 5 containing cells, bottom regions” value in assay [10] is “≈ 25%”. Further, the “percentage of Hst 5 positive cells, middle regions (8 µm)” value in [10] was determined as 33%. Besides, in assay [11], the “percentage of Hst 5-labeled cells, bottom regions (2.5 µm)” value worked out at 20%. In addition, the IC50 in assay [12] was > 225 µg/mL.
